Data taken from US20260345584A1, “METHODS AND PHARMACEUTICAL COMPOSITIONS FOR TREATING CHEMOTHERAPY-INDUCED PERIPHERAL NEUROPATHY WITH EG5 INHIBITORS” (UNIVERSITY OF MIAMI, priority 2023, published 2026).

Columns and labels:
nox1 = experiment: Nox1 immunofluorescence: subcellular translocation in keratinocytes; type: in vivo, zebrafish; settings: EMD534085 alone, 96 hr
Method: The stock solution was divided into 20-30 μl aliquots and stored at −20 °C until use (maximal 6 months). Immediately prior to use, paclitaxel was diluted in Ringer's solution and added to dechorionated larval zebrafish. The larval fish were placed individually or in small groups into wells of a 12-well plate containing the treatment solutions. The control group was 0.05% DMSO. Plates were incubated at 28.5 °C and protected from light. Treatment lengths are indicated in the Drawings, Description of the Drawings, and Examples where appropriate. […] EMD534085, Eg5 inhibitor (MedChemExpress, Cat. No. HY-15000) was diluted in 100% DMSO to make a 10 mM stock solution and stored at −20 °C. […] The solutions were exchanged every 48 hr. […]
Measurements were determined by measuring fluorescence intensity in Fiji using single slice and single channel modes. First, a line using the line tool was placed along the plasma membrane that was clearly distinguishable from the cytoplasm due to increased fluorescence compared with the cytoplasm in all treatment groups. The measurement tool was subsequently selected to measure the mean fluorescence intensity. […] To determine the mean cytoplasmic fluorescence intensity, nuclei were first overlaid with Nox1 fluorescence to ensure the exclusion of nuclear measurements. […] The fluorescence data was exported to Excel and the ratios calculated.

axonal microtubules = experiment: Axonal detyrosination (GluTub) along axon segments in distal caudal fin; type: in vivo, zebrafish; settings: EMD534085 alone, wildtype, 96 hr
Method: Larval fish were transferred into […] glass vials and fixed in 4% paraformaldehyde (PFA)/1× Phosphate-buffered saline (PBS) for 1.5 hr at room temperature, with gentle rocking. Following a 5-minute incubation in 1×PBS+0.1% Tween-20 (PBST), zebrafish were permeabilized in 1×PBS+0.1% Triton X-100 for 10-30 min. Larval fish were transferred into 2 ml reaction tubes and incubated in blocking buffer (1×PBST+5% BSA) for 30 min at room temperature, with rocking. Larval fish were further incubated overnight in antibody solution (Millipore Sigma, Cat. No. AB3201, 1:300 rabbit anti-GluTub; Sigma, Cat No. T6793, 1:500 mouse anti-acetylated tubulin) in blocking buffer at 4 °C, on a rotator. The next morning, larval fish were transferred into 6-well plates and washed 4×15 min in 1×PBST at room temperature, with rocking. […]
Axon branch number quantifications were performed by drawing a 50 μm line across the dorsal, medial, and ventral caudal fin edge region at a distance of 100 μm parallel to the fin edge (which was determined to be the most reliable region to quantify distal branch numbers). Axons traversing this line were counted and averaged per treatment group. Axonal fluorescence measurements were taken using the Imaris Spots function by manually placing spots along the axon and using the fluorescence intensity profile measurements MatLab tool.

suprabasal keratinocytes = experiment: dfMT formation in mouse epidermis; type: in vivo; settings: single injection 20 mg/kg
Method: The mice in each cage were randomly allocated to different treatment groups. Food and water were available ad libitum and experiments were performed during the light cycle (7:00 am to 7:00 pm). Animals were euthanized via CO2 asphyxiation, followed by cervical dislocation. […] The animal's husbandry conformed with established NIH and Institutional Animal Care and Use Committee (IACUC) approved protocols.
Paws and back skin were collected at predetermined time points, placed in 10% formalin, and stored overnight at 4 °C. Samples were embedded in paraffin and sectioned at 7 μm, deparaffinized, washed with PBS, and incubated at room temperature for 5 min in 0.1% Triton X-100 in PBS and then blocked for 30 min (5% BSA). Sections were incubated with primary antibody diluted in blocking solution, overnight at 4 °C in a humidity chamber. Following PBS washes, sections were incubated for 1 h at room temperature with a secondary antibody. Tissues were mounted and assessed for staining. Antibodies used were against detyrosinated tubulin Millipore AB3201, p-KIF11 Invitrogen PA5-38647, alpha-tubulin Proteintech 66031-1-Ig, mouse Alexa Fluor 488 Invitrogen A21202, and rabbit Alexa flour 546 Invitrogen A10040. DAPI was used for nuclei counterstaining. […]

[1] = tested on: microtubule acetylation in keratinocytes; experiment: Keratinocyte microtubule acetylation (K40); type: in vivo, zebrafish; settings: 22 μM paclitaxel, 96 hr, with and without EMD534085
Method: Larval fish were transferred into […] glass vials and fixed in 4% paraformaldehyde (PFA)/1× Phosphate-buffered saline (PBS) for 1.5 hr at room temperature, with gentle rocking. Following a 5-minute incubation in 1×PBS+0.1% Tween-20 (PBST), zebrafish were permeabilized in 1×PBS+0.1% Triton X-100 for 10-30 min. Larval fish were transferred into 2 ml reaction tubes and incubated in blocking buffer (1×PBST+5% BSA) for 30 min at room temperature, with rocking. Larval fish were further incubated overnight in antibody solution (Millipore Sigma, Cat. No. AB3201, 1:300 rabbit anti-GluTub; Sigma, Cat No. T6793, 1:500 mouse anti-acetylated tubulin) in blocking buffer at 4 °C, on a rotator. The next morning, larval fish were transferred into 6-well plates and washed 4×15 min in 1×PBST at room temperature, with rocking. This was followed by incubation in secondary antibody (goat anti-rabbit Cy5, Abcam, Cat. No. ab97077; goat anti-mouse Cy3, Abcam, Cat. No. ab97035) and 1:10,000 Hoechst 33342 (ThermoFisher Scientific, Cat. No. 62249, 20 mM solution) in blocking buffer for 1 hr at room temperature, with rocking. Fish were covered to avoid bleaching. […]

## CN(C)CCNC(=O)NC[C@H]1CC[C@@H]2[C@H](O1)c1cc(C(F)(F)F)ccc1N[C@H]2c1ccccc1 [EMD534085]
nox1
  Nox1 Membrane:cytoplasmic ratio: 1.7±0.1
  Nox1 Nucleus:cytoplasmic ratio: 1.36±0.08
Axonal microtubules
  normalized GluTub intensity ratios (axon): 2.13±0.13

## CC(=O)O[C@H]1C(=O)[C@@]2(C)[C@H]([C@H](OC(=O)c3ccccc3)[C@]3(O)C[C@H](OC(=O)[C@H](O)[C@@H](NC(=O)c4ccccc4)c4ccccc4)C(C)=C1C3(C)C)[C@]1(OC(C)=O)CO[C@@H]1C[C@@H]2O [paclitaxel]
Suprabasal keratinocytes
  dfMT formation in mouse epidermis: resulted in dfMT formation in a subset of suprabasal keratinocytes
[1]
  keratinocyte microtubule acetylation: an increase in keratinocyte microtubule acetylation after 96 hr paclitaxel treatment with and without EMD534085
